# Laboratory results: paper PMC12763877 (Journal of Experimental & Clinical Cancer Research : CR, 2025)
# How the values were obtained:
# [1] = system: pathological choroidal neovascularization; set-up: method as in PMID 30208056; conditions: mouse model; cited from earlier work
# APLNR = target: T1, APLNR (Homo sapiens, UniProt P35414); set-up: expressed in transfected cells; host or cells: HEK293; conditions: cited from earlier work
# T1 sequence (P35414 1-380): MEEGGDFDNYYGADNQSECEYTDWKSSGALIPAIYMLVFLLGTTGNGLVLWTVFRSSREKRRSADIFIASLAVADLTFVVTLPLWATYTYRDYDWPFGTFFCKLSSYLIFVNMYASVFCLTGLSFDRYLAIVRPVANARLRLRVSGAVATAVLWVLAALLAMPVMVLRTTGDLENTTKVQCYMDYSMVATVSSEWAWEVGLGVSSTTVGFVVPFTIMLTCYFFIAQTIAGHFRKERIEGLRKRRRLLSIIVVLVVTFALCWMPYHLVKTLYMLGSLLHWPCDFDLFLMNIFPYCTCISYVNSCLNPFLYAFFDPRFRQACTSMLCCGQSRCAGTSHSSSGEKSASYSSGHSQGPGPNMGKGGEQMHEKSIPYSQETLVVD
# zebrafish embryos = experiment: Zebrafish embryo toxicity; type: in vivo, zebrafish (Danio rerio); conditions: embryos exposed 12 to 48 hpf, survival
# Protocol: Transgenic zebrafish Tg(flk: EGFP) were obtained from the China Zebrafish Resource Center and maintained at 28 ± 1 °C under a 14-hour light/10-hour dark cycle. […] Survival rates were recorded to calculate the median lethal concentration (LC₅₀). For the retinal angiogenesis assay, embryos at 1 day post fertilization (dpf) were transferred to E3 medium containing 5 mM CoCl₂·6 H₂O and 2.5 µg/mL GS4012 to induce hypoxia and abnormal vessel formation. At 3 dpf, test compounds were added and incubation continued until 5 dpf. Blank, model, and vehicle (≤ 0.1% DMSO) controls were included, with at least three replicates per group (n = 10–15 embryos). At 5 dpf, retinal vasculature was imaged using fluorescence microscopy and analyzed for branching number, vessel length, and density using ImageJ. Data are presented as mean ± standard deviation (SD) and analyzed using one-way ANOVA followed by Tukey’s post hoc test, with p < 0.05 considered statistically significant.
# The zebrafish (Danio rerio) model was employed due to its distinct advantages, the optical transparency, which enable in vivo vascular visualization. […] Firstly, the 8 candidate compounds underwent preliminary toxicity evaluation in zebrafish embryos. […] At 48 hpf, the number of surviving embryos was quantified, and the lethal dose 50 (LD50) for each compound was determined based on the survival data. […]
# [2] = system: STING signaling pathway in HUVEC; experiment: Western blot of STING pathway proteins; type: cell-based, human; conditions: NAC 5 mM pretreatment 2 h + candesartan 15 µM 48 h
# Protocol: (§1) Total protein was extracted using RIPA lysis buffer (Solarbio, China) supplemented with phenylmethylsulfonyl fluoride (PMSF; Thermo Fisher Scientific, USA), protease inhibitor cocktail (Roche, Switzerland), and phosphatase inhibitor cocktail (Roche, Switzerland). Protein concentration was determined using a BCA protein assay kit (Thermo Fisher Scientific, USA). Equal amounts of protein were separated by 10% SDS-polyacrylamide gel electrophoresis (SDS-PAGE) and transferred onto nitrocellulose (NC) membranes. […] All primary antibodies were purchased from Cell Signaling Technology (CST, USA), except for GAPDH, which was obtained from Proteintech (Wuhan, China). After washing, the membranes were incubated with HRP-conjugated goat anti-rabbit or anti-mouse IgG secondary antibodies (Biosharp, China) for 1 h at room temperature. Protein bands were visualized using an enhanced chemiluminescence (ECL) detection system and scanned using a chemiluminescence imaging system.
# HUVEC [3] = experiment: DNA damage: γ-H2AX western blot and alkaline comet assay; type: cell-based, human
# Protocol: as §1
# HUVEC [4] = experiment: Wound healing and Transwell assays; type: cell-based, human; conditions: candesartan 15, 7.5, 3.75 µM; sunitinib 2 µM; 48 h
# Protocol: HUVEC cells were digested and inoculated into 6-well plates, with 1 × 10^5 cells added to each hole. On the second day, the gun head was drawn vertically along the edge of the upper lid of the hole plate. The cells were washed twice with PBS, the scratched cells were removed, and the serum free medium containing drugs was added. The photos were taken and recorded under the microscope for 0 h and cultured in a 5% CO2 incubator at 37℃. After 48 h, the sample was taken and photographed for recording. The cell scratch area was calculated with Image J software.
# Migration assays were performed using the Transwell cell culture insert. HUVEC (3 × 10^4 cells) were suspended with 100µL serum-free medium containing different concentrations of compounds and placed in the upper layer of the Transwell cell culture insert, and 300µL medium containing 10% FBS was placed below the cell-permeable membrane. Following an incubation (48 h), the cells that had migrated through the membrane were stained with 0.2% crystal violet for 30 min and count.
# HUVEC [5] = experiment: Tube formation assay; type: cell-based, human; conditions: candesartan 15, 7.5, 3.75 µM; sunitinib 2 µM
# Protocol: The 96-well plate was coated with 50 µl matrix glue per well, and then HUVEC was inoculated into the 96-well plate coated with matrix glue with a density of 4 × 10^4 cells per well. Photos were taken with an optical microscope (Nikon, China) after culture at 37℃ and 5% CO2 for 6–8 h, and the length of the generated blood vessels was analyzed using ImageJ.
# [6] = system: FAK-MMP9 signaling in HUVEC; experiment: Western blot of FAK and MMP-9; type: cell-based, human
# Protocol: as §1
structure (smiles),measurement,setting,value
CCN(CC)Cc1cc(Nc2ccnc3cc(Cl)ccc23)ccc1O [Amodiaquine],Pathological choroidal neovascularization,[1],reduces pathological choroidal neovascularization
same,Inhibition of APLN/APLNR signaling,APLNR,inhibits APLN/APLNR signaling in a concentration-dependent manner
CSCC[C@H](NC(=O)[C@@H]1CCCN1C(=O)CNC(=O)[C@H](CCCCN)NC(=O)[C@H](Cc1c[nH]cn1)NC(=O)[C@H](CO)NC(=O)[C@H](CC(C)C)NC(=O)[C@H](CCCNC(=N)N)NC(=O)[C@@H]1CCCN1C(=O)[C@H](CCCNC(=N)N)NC(=O)[C@@H](N)CCC(N)=O)C(=O)N1CCC[C@H]1C(=O)N[C@@H](C)C(=O)O [Compound F13A],"LD50(µM,48 h)",zebrafish embryos,2.85 ± 0.31 µM
"CC(=O)N[C@@H](CS)C(=O)O [NAC, N-acetylcysteine]",Effect on candesartan-induced STING pathway upregulation,[2],attenuated candesartan-induced upregulation of STING pathway components
same,Effect on candesartan-induced γ-H2AX expression,HUVEC [3]; NAC 5 mM + candesartan 15 µM,significantly reduced γ-H2AX expression
same,Effect on candesartan-induced DNA damage (comet assay),HUVEC [3]; NAC 5 mM pre-treatment + candesartan 15 µM,effectively mitigate candesartan-induced DNA damage
CCN(CC)CCNC(=O)c1c(C)[nH]c(/C=C2\C(=O)Nc3ccc(F)cc32)c1C [Sunitinib],Migratory and invasive capacities of HUVECs,HUVEC [4],significantly reduced the migratory and invasive capacities of HUVECs
same,Tube formation: mean mesh size and total mesh area,HUVEC [5],increase the mean mesh and the total meshe area
same,"Tube formation: number of junctions, total segment length, number of meshes",HUVEC [5],"significantly reduced the number of junctions, total segment length, and the number of meshes"
same,Expression of MMP9 and FAK,[6],significantly decreased the expression of MMP9 and FAK
